According to patent US4416877A, “Anti-atherosclerotic pharmaceutical compositions containing diphosphonate compounds” (priority 1979, dated 1983):
Entries after “also recorded” stand apart in the source; their conditions may differ. Read-outs that look alike come from different tables or passages of the source.

Legend:
lipid metabolism = test: Effects of diphosphonates on lipid metabolism in normal rats (serum lipids, α/β cholesterol); type: in vivo, male Wistar rats; settings: for change in vivo at 200 mg/kg/day: Rattus norvegicus, po; for change in vivo at 200 mg/kg/day / Serum Free Fatty Acids (% control values) / Serum Phospholipids (% control values) / Serum Triglycerides (% control values) / Serum Chol. α/β (% control values): normal rats (N), 200 mg/kg/day p.o.; for increased HDL lipids, especially HDL cholesterol: normal rats
Protocol: Effects of diphosphonates of formula (I) on lipid metabolism in normal rats Groups of 4 to 5 normal male Wistar rats, weighing about 200 g were treated with diphosphonates (200 mg/kg/day) p.o. for 4 to 21 days. Water soluble compounds were given in solution in 24 mM bicarbonate buffer. Lipid soluble compounds were given in corn oil. The rats were weighed, sacrificed by decapitation (under light ether anesthesia) after overnight fasting. Blood was collected and serum used for analysis. The following blood parameters reflecting changes in lipid metabolism are reported: […]
free fatty acids measured according to W. G. Duncombe (Clin. Acta 9, 122, 1964) triglycerides enzymatic method (Boehringer Mannheim Kit 126 012) phospholipids: molybdate/vanadate reaction (Boehringer Mannheim Kit 124 974) β-lipoprotein cholesterol was measured after heparin, CaCl2 precipitation according to M. Burstein et al. (La Presse Medicale 43, 974, 1958) and to D. Watson (Clin. Chim. Acta 5, 637, 1960).
(§1) In above Table IV, results are given as % control values. Except for serum calcium, values which differ from control values by less than 15% are considered as non significant (NS).
Serum free fatty acids, triglycerides and phospholipids were measured in normal rats (N) and rats previously fed a cholesterol diet for 10 days (C.F.) Serum α/β cholesterol, total lipids and cholesterol of liver and aorta were determined in normal rats (N) and rats which had previously been fed on high cholesterol diet (C.F.)

tissue cholesterol = test: Effects in cholesterol fed rats (serum, liver and aorta lipids); type: in vivo; settings: for liver total lipids and/or liver cholesterol: cholesterol fed rats; for change in vivo at 200 mg/kg/day: Rattus norvegicus
Protocol: Effects of diphosphonates of formula (I) in cholesterol fed rats
In order to increase tissue cholesterol, especially liver, rats were fed a high fat-high cholesterol diet for 10 days to 3 months, with the following diet composition: casein 20%, butter 37%, cellulose 9.1%, dextrose 18,9%, cholesterol 4.5%, sodium cholate 1.8%, minerals 7.3%, vitamins 1%, choline 0.4%.
The rats were then fed normal food and were treated for 10 days to 3 months with different compounds (200 mg/kg/day). Serum parameters described above were measured. Liver and aorta lipids were extracted according to J. Folch et al (J. Biochem. 226, 497, 1957). Total lipids were determined by the sulfophosphovanillic reaction (see N. Zolner and K. Kirsch, Z. Ges. exp. Med. 135, 545, 1962) and cholesterol by the Liebermann-Burchard reaction or appropriate enzymatic reaction.
as §1
Serum free fatty acids, triglycerides and phospholipids were measured in normal rats (N) and rats previously fed a cholesterol diet for 10 days (C.F.)
Serum α/β cholesterol, total lipids and cholesterol of liver and aorta were determined in normal rats (N) and rats which had previously been fed on high cholesterol diet (C.F.)

[1] = read-out: Serum Chol. α/β (% control values)
[2] = read-out: Serum Phospholipids (% control values)
[3] = read-out: Serum Triglycerides (% control values)
[4] = cholesterol fed rats (C.F), 200 mg/kg/day
[5] = read-out: Serum Free Fatty Acids (% control values)

SMILES: COP(=O)(OC)OC(c1cc(C)ccc1C)P(=O)(OC)OC (stereo not drawn) [Compound 19, Dimethyl α-(dimethoxyphosphinyl)2,5-dimethylbenzyl phosphate]
- change in vivo at 200 mg/kg/day (lipid metabolism; [1]): 15%
- change in vivo at 200 mg/kg/day (lipid metabolism; [2]): < 15%
- change in vivo at 200 mg/kg/day (lipid metabolism; [3]): < 15%
- decreases in serum triglycerides (lipid metabolism; rats): Significant decreases

SMILES: COP(=O)(OC)OC(c1cccc(Cl)c1)P(=O)(OC)OC (centres unmarked) [Compound 15]
- change in vivo at 200 mg/kg/day (lipid metabolism; [1]): 69%
- change in vivo at 200 mg/kg/day (lipid metabolism; [2]): < 15%
- change in vivo at 200 mg/kg/day (lipid metabolism; [3]): -37%
- increased HDL lipids, especially HDL cholesterol (lipid metabolism): observed most dramatically
- α-cholesterol/β-cholesterol ratio / lipoprotein cholesterol (lipid metabolism; rats): highly significant activity

SMILES: COP(=O)(OC)C(O)(c1ccccc1)P(=O)(OC)OC [Compound 2]
- increased HDL lipids, especially HDL cholesterol (lipid metabolism): observed most dramatically
- Serum Free Fatty Acids (% control values) (lipid metabolism): NS (Except for serum calcium, values which differ from control values by less than 15% are considered as non significant (NS))
- Serum Phospholipids (% control values) (lipid metabolism): +25%
- Serum Triglycerides (% control values) (lipid metabolism): -21%
- decreases in serum triglycerides (lipid metabolism; rats): Significant decreases
- increase in serum phospholipid (lipid metabolism; rats): found to increase
- α-cholesterol/β-cholesterol ratio / lipoprotein cholesterol (lipid metabolism; rats): highly significant activity
- liver total lipids and/or liver cholesterol (tissue cholesterol): decreased significantly
- Aorta Chol. (% control values) (tissue cholesterol; [4]): NS (Except for serum calcium, values which differ from control values by less than 15% are considered as non significant (NS))
- Aorta Total Lipids (% control values) (tissue cholesterol; [4]): -30%
- Liver Chol. (% control values) (tissue cholesterol; [4]): -50%
- Liver Total Lipids (% control values) (tissue cholesterol; [4]): -24%
- Serum Chol. α/β (% control values) (tissue cholesterol; [4]): +88%
- Serum Free Fatty Acids (% control values) (tissue cholesterol; [4]): -56%
- Serum Phospholipids (% control values) (tissue cholesterol; [4]): NS (Except for serum calcium, values which differ from control values by less than 15% are considered as non significant (NS))
- Serum Triglycerides (% control values) (tissue cholesterol; [4]): -15%

SMILES: COP(=O)(OC)C(CCCc1ccccc1)P(=O)(OC)OC [Compound 37, Tetramethyl 4-phenylbutylidene 1,1-diphosphonate]
- change in vivo at 200 mg/kg/day (lipid metabolism; [1]): 49%
- change in vivo at 200 mg/kg/day (lipid metabolism; [2]): 33%
- change in vivo at 200 mg/kg/day (lipid metabolism; [3]): 42%
- increased HDL lipids, especially HDL cholesterol (lipid metabolism): observed most dramatically
- increase in serum phospholipid (lipid metabolism; rats): found to increase
- α-cholesterol/β-cholesterol ratio / lipoprotein cholesterol (lipid metabolism; rats): highly significant activity

SMILES: COP(=O)(OC)OC(C(C)(C)c1ccccc1)P(=O)(OC)OC (centres unmarked) [Compound 20]
- change in vivo at 200 mg/kg/day (lipid metabolism; [1]): 25%
- change in vivo at 200 mg/kg/day (lipid metabolism; [2]): 15%
- change in vivo at 200 mg/kg/day (lipid metabolism; [3]): 36%
- increase in serum phospholipid (lipid metabolism; rats): found to increase

SMILES: COP(=O)(OC)OC(c1ccccc1Cl)P(=O)(OC)OC (centres unmarked) [Compound 14]
- change in vivo at 200 mg/kg/day (lipid metabolism; [1]): 34%
- change in vivo at 200 mg/kg/day (lipid metabolism; [2]): 22%
- change in vivo at 200 mg/kg/day (lipid metabolism; [3]): -42%

SMILES: COP(=O)(OC)C(Cc1ccc(Cl)cc1)P(=O)(OC)OC [Compound 35]
- change in vivo at 200 mg/kg/day (lipid metabolism; [1]): 75%
- change in vivo at 200 mg/kg/day (lipid metabolism; [5]): -44%
- change in vivo at 200 mg/kg/day (lipid metabolism; [2]): 51%
- change in vivo at 200 mg/kg/day (lipid metabolism; [3]): < 15%
- increased HDL lipids, especially HDL cholesterol (lipid metabolism): observed most dramatically
- increase in serum phospholipid (lipid metabolism; rats): found to increase; also recorded: at least two fold the most active
- α-cholesterol/β-cholesterol ratio / lipoprotein cholesterol (lipid metabolism; rats): highly significant activity
- change in vivo at 200 mg/kg/day (tissue cholesterol; cholesterol fed rats (C.F), 200 mg/kg/day, read-out: Liver Chol. (% control values)): -19%
- change in vivo at 200 mg/kg/day (tissue cholesterol; cholesterol fed rats (C.F), 200 mg/kg/day, read-out: Liver Total Lipids (% control values)): < 15%
- liver total lipids and/or liver cholesterol (tissue cholesterol): decreased significantly

SMILES: COP(=O)(OC)OC(C(C)(C)Cc1ccc(Cl)cc1)P(=O)(OC)OC (centres unmarked) [Compound 22]
- change in vivo at 200 mg/kg/day (lipid metabolism; [1]): -38%
- change in vivo at 200 mg/kg/day (lipid metabolism; [2]): < 15%
- change in vivo at 200 mg/kg/day (lipid metabolism; [3]): -19%

SMILES: COP(=O)(OC)C(O)(c1ccc(C)cc1)P(=O)(OC)OC [Compound 3]
- change in vivo at 200 mg/kg/day (lipid metabolism; [1]): < 15%
- change in vivo at 200 mg/kg/day (lipid metabolism; [5]): < 15%
- change in vivo at 200 mg/kg/day (lipid metabolism; [2]): < 15%
- change in vivo at 200 mg/kg/day (lipid metabolism; [3]): < 15%

SMILES: COP(=O)(OC)C(O)(c1ccc(F)cc1)P(=O)(OC)OC [Compound 5]
- change in vivo at 200 mg/kg/day (lipid metabolism; [1]): 64%
- change in vivo at 200 mg/kg/day (lipid metabolism; [3]): 27%
- increased HDL lipids, especially HDL cholesterol (lipid metabolism): observed most dramatically
- α-cholesterol/β-cholesterol ratio / lipoprotein cholesterol (lipid metabolism; rats): highly significant activity

SMILES: COP(=O)(OC)C(O)(C(C)(C)C)P(=O)(OC)OC [Compound 1]
- Serum Chol. α/β (% control values) (lipid metabolism): NS (Except for serum calcium, values which differ from control values by less than 15% are considered as non significant (NS))
- Serum Free Fatty Acids (% control values) (lipid metabolism): NS (Except for serum calcium, values which differ from control values by less than 15% are considered as non significant (NS))
- Serum Phospholipids (% control values) (lipid metabolism): -43%
- Serum Triglycerides (% control values) (lipid metabolism): +24%
- property to change lipid metabolism / increase HDL (lipid metabolism; rats): do not have these properties

SMILES: COP(=O)(OC)OC(C1CCCCC1)P(=O)(OC)OC (centres unmarked) [Compound 12]
- Serum Chol. α/β (% control values) (lipid metabolism): NS (Except for serum calcium, values which differ from control values by less than 15% are considered as non significant (NS))
- Serum Phospholipids (% control values) (lipid metabolism): NS (Except for serum calcium, values which differ from control values by less than 15% are considered as non significant (NS))
- Serum Triglycerides (% control values) (lipid metabolism): -46%
- decreases in serum triglycerides (lipid metabolism; rats): Significant decreases

SMILES: COP(=O)(OC)OC(c1ccc(C(=O)c2ccc(Cl)cc2)cc1)P(=O)(OC)OC (stereo not drawn) [Compound 23, Dimethyl [α-(dimethoxyphosphinyl) 4-(4'-chlorobenzoyl)]benzyl phosphate]
- change in vivo at 200 mg/kg/day (lipid metabolism; [1]): 55%
- change in vivo at 200 mg/kg/day (lipid metabolism; [2]): 53%
- change in vivo at 200 mg/kg/day (lipid metabolism; [3]): < 15%
- increased HDL lipids, especially HDL cholesterol (lipid metabolism): observed most dramatically
- increase in serum phospholipid (lipid metabolism; rats): found to increase; also recorded: at least two fold the most active
- α-cholesterol/β-cholesterol ratio / lipoprotein cholesterol (lipid metabolism; rats): highly significant activity

SMILES: COP(=O)(OC)OC(c1ccc(F)cc1)P(=O)(OC)OC (centres unmarked) [Compound 17]
- change in vivo at 200 mg/kg/day (lipid metabolism; [1]): 81%
- change in vivo at 200 mg/kg/day (lipid metabolism; [2]): < 15%
- change in vivo at 200 mg/kg/day (lipid metabolism; [3]): < 15%
- increased HDL lipids, especially HDL cholesterol (lipid metabolism): observed most dramatically
- α-cholesterol/β-cholesterol ratio / lipoprotein cholesterol (lipid metabolism; rats): highly significant activity

SMILES: CCCCOP(=O)(OCCCC)OC(c1ccc(Cl)cc1)P(=O)(OCCCC)OCCCC (centres unmarked) [Compound 25]
- Serum Chol. α/β (% control values) (lipid metabolism): NS (Except for serum calcium, values which differ from control values by less than 15% are considered as non significant (NS))
- Serum Phospholipids (% control values) (lipid metabolism): NS (Except for serum calcium, values which differ from control values by less than 15% are considered as non significant (NS))
- Serum Triglycerides (% control values) (lipid metabolism): NS (Except for serum calcium, values which differ from control values by less than 15% are considered as non significant (NS))

SMILES: CCOP(=O)(OCC)C(CCCc1ccccc1)P(=O)(OCC)OCC [Compound 29, Tetraethyl 4-phenylbutylidene 1,1-diphosphonate]
- change in vivo at 200 mg/kg/day (lipid metabolism; [1]): 33%
- change in vivo at 200 mg/kg/day (lipid metabolism; [2]): 17%
- change in vivo at 200 mg/kg/day (lipid metabolism; [3]): 46%
- increase in serum phospholipid (lipid metabolism; rats): found to increase
